Results on 83 molecules are retold here after patent US9434745B2, “7-oxo-thiazolopyridine carbonic acid derivatives and their use in the treatment, amelioration or prevention of a viral disease” (Savira Pharmaceuticals GmbH, priority 2012, dated 2016).

SMILES strings stand for the structures. Where only a bound is given, the exact number is not on record here.

For orientation: melting point means the temperature of the solid-liquid transition. Usually IC50 stands for the concentration that gives 50% inhibition.

In data set [1] the target is T1, influenza A virus (IAV) PA-Nter fragment (amino acids 1-209) (Influenza A virus, UniProt P31343).
T1 construct: PA-Nter fragment (amino acids 1-209); made in house
The data set is described as follows: FRET endonuclease activity assay. Format: biochemical. The settings on record: for IC50: from initial reaction velocities (v0) of RNA substrate cleavage; for inhibition at 1 µM / inhibition at 10 µM / inhibition at 5 µM / inhibition at 25 µM / inhibition at 50 µM: read-out: FRET % reduction of v0.

In turn, `O=C(O)Cc1c[nH]c2nc(Nc3ccccc3)nn2c1=O` returned a melting point of 279 to 281 °C.
Still for that read-out and setting: to `O=C(O)c1cn(Cc2ccccc2)c2cc(C3CC3)nn2c1=O` belongs 210 to 215 °C; to `O=C(O)c1cn(CCc2ccccc2)c2cc(C3CC3)nn2c1=O`, 185 to 190 °C.
The same measure, in the same setting: with `O=C(O)c1cn(CCc2ccc(O)cc2)c2cc(C3CC3)nn2c1=O` the figure was 265 to 270 °C; with `COc1ccc(CCn2cc(C(=O)O)c(=O)n3nc(C4CC4)cc23)cc1`, 145 to 150 °C; with `O=C(O)c1cn(CCc2cccc(C(F)(F)F)c2)c2cc(C3CC3)nn2c1=O`, 200 to 205 °C.
`CC(C)c1cc2n(Cc3ccccc3)cc(C(=O)O)c(=O)n2n1` returned a melting point of 180 to 185 °C.
On the same count and under the same terms, to `O=C(O)c1cn(CCc2ccccc2)c2cc(C3CCCC3)nn2c1=O` belongs 198 to 200 °C.
`O=C(O)Cc1c[nH]c2cc(C3CC3)nn2c1=O` gave a melting point of more than 300 °C.
The molecule `CCOC(=O)c1c[nH]c2nc(NCc3ccc(Br)cc3)nn2c1=O` registered a melting point of 286 to 287 °C.
Turning to `CCOC(=O)c1c[nH]c2nc(NCc3cccc4ccccc34)nn2c1=O`, the melting point was in the range of 273 to 275 °C.
Still for that read-out and setting: to `CCOC(=O)c1c[nH]c2nc(Nc3ccc(NC(C)=O)cc3)nn2c1=O` belongs more than 330 °C; to `CCOC(=O)Cc1c[nH]c2nc(Nc3ccccc3)nn2c1=O`, 255 to 257 °C.
The same measure, in the same setting: to `O=C(O)c1c[nH]c2cc(C3CC3)nn2c1=O` belongs 275 to 278 °C; to `O=C(O)c1c[nH]c2cc(C(F)(F)F)nn2c1=O`, more than 340 °C.
Same read-out and setting: with `CCOC(=O)c1cn(CCc2ccccc2)c2cc(C3CC3)nn2c1=O` the figure was 155 to 160 °C; with `CCOC(=O)c1cn(CCc2cccc(Cl)c2)c2cc(C3CC3)nn2c1=O`, 160 to 165 °C; with `CCOC(=O)c1cn(Cc2ccccc2)c2cc(C(C)C)nn2c1=O`, 135 to 140 °C.
As for `CCOC(=O)c1cn(CCc2ccccc2)c2cc(C(C)C)nn2c1=O`, the melting point was 130 to 135 °C.
The same measure, in the same setting: with `CCOC(=O)Cc1c[nH]c2cc(C(F)(F)F)nn2c1=O` the figure was 290 to 293 °C; with `CCOC(=O)Cc1c[nH]c2cc(C3CC3)nn2c1=O`, 280 to 283 °C.
Take `CCOC(=O)c1c[nH]c2cc(C(=O)NCCc3ccc(Cl)cc3)nn2c1=O`: the melting point is more than 300 °C.
Still for that read-out and setting: to `CCOC(=O)c1c[nH]c2cc(C(=O)NCc3ccccc3)nn2c1=O` belongs 290 to 292 °C; to `O=C(O)c1c[nH]c2nc(NCc3cccc4ccccc34)nn2c1=O`, 245 to 250 °C.
Take `O=C(O)c1cn(Cc2ccccc2-c2ccccc2)c2sc(NS(=O)(=O)c3ccccc3)nc2c1=O`: in data set [1], half-maximal inhibition (IC50) required 6.5 µM.
The same measure, in the same setting: with `O=C(O)c1cn(Cc2ccccc2-c2ccccc2)c2sc(NCc3ccccc3)nc2c1=O` the figure was 3.2 µM.
Regarding `CNc1nc2c(=O)c(C(=O)O)cn(Cc3ccccc3-c3ccccc3)c2s1`, half-maximal inhibition in data set [1] (IC50) was put at 2.8 µM.
Still for that read-out and setting: to `O=C(O)c1cn(Cc2ccccc2-c2ccccc2)c2sc(NC3CC3)nc2c1=O` belongs 2.5 µM; to `CC(C)Nc1nc2c(=O)c(C(=O)O)cn(Cc3ccccc3-c3ccccc3)c2s1`, 14 µM; to `COCCNc1nc2c(=O)c(C(=O)O)cn(Cc3ccccc3-c3ccccc3)c2s1`, 9 µM.
As to `O=C(O)c1cn(Cc2ccccc2-c2ccccc2)c2sc(N3CCOCC3)nc2c1=O`, the IC50 in data set [1] worked out at 0.78 µM.
Same read-out and setting: with `O=C(O)c1cn(Cc2ccccc2-c2ccccc2)c2sc(NS(=O)(=O)Cc3ccccc3)nc2c1=O` the figure was 7.3 µM; with `O=C(O)c1cn(Cc2ccccc2-c2ccccc2)c2sc(NS(=O)(=O)c3cccc(F)c3)nc2c1=O`, 6.7 µM; with `CS(=O)(=O)Nc1nc2c(=O)c(C(=O)O)cn(Cc3ccccc3-c3ccccc3)c2s1`, 8.1 µM.
Same read-out and setting: with `O=C(O)c1cn(Cc2ccccc2-c2ccccc2)c2sc(NCc3ccc(Cl)cc3)nc2c1=O` the figure was 2.3 µM.
In data set [1], `COc1ccc(CNc2nc3c(=O)c(C(=O)O)cn(Cc4ccccc4-c4ccccc4)c3s2)cc1` yielded a 50% inhibitory concentration (IC50) of 2.9 µM. This IC50 and that of the molecule before are within 1.5-fold of each other.
Same read-out and setting: to `O=C(O)c1cn(Cc2ccccc2-c2ccccc2)c2sc(NCc3cccc(Cl)c3)nc2c1=O` belongs 5.2 µM.
In the case of `CC(Nc1nc2c(=O)c(C(=O)O)cn(Cc3ccccc3-c3ccccc3)c2s1)c1ccccc1` (centres unmarked), in data set [1], it took 5.8 µM to reach half-maximal inhibition (IC50). The IC50 values of the last two molecules are within 1.5-fold of each other.
Molecule `O=C(O)c1cn(Cc2ccccc2-c2ccccc2)c2sc(O)nc2c1=O` displayed an IC50 in data set [1] of 0.16 µM. This IC50 lies about 36-fold lower than the previous one.
For `COc1ccc(S(=O)(=O)Nc2nc3c(=O)c(C(=O)O)cn(Cc4ccccc4-c4ccccc4)c3s2)cc1`, half-maximal inhibition in data set [1] (IC50) required 2.7 µM.
Still for that read-out and setting: to `O=C(O)c1cn(Cc2ccccc2-c2ccccc2)c2sc(NS(=O)(=O)c3ccc(Cl)cc3F)nc2c1=O` belongs 5.7 µM.
For the molecule `CCOC(=O)c1cn(Cc2ccccc2-c2ccccc2)c2sc(NS(=O)(=O)c3ccc(Cl)cc3)nc2c1=O`, in data set [1], the inhibition at 1 µM came to 6.2%.
The molecule `CCOC(=O)c1cn(Cc2ccccc2-c2ccccc2)c2sc(NCc3c(Cl)cccc3Cl)nc2c1=O` came in with an IC50 in data set [1] of 6.3 µM.
As for `CCOC(=O)c1ccc(S(=O)(=O)Nc2nc3c(=O)c(C(=O)OCC)cn(Cc4ccccc4-c4ccccc4)c3s2)cc1`, the inhibition at 1 µM in data set [1] is 8.1%.
With `COc1ccc(CNc2nc3c(=O)c(C(=O)O)cn(C(c4ccccc4)c4ccccc4)c3s2)cc1`, the inhibition at 10 µM in data set [1] was 21.5%.
As to `CCOC(=O)c1cn(C(c2ccccc2)c2ccccc2)c2sc(NS(=O)(=O)c3ccc(Cl)cc3F)nc2c1=O`, the inhibition at 1 µM in data set [1] amounted to 5.6%.
With `O=C(O)c1cn(C(c2ccccc2)c2ccccc2)c2sc(NS(=O)(=O)c3ccc(Cl)cc3F)nc2c1=O`, the inhibition at 1 µM in data set [1] was 2%.
As for `COc1ccc(S(=O)(=O)Nc2nc3c(=O)c(C(=O)O)cn(C(c4ccccc4)c4ccccc4)c3s2)cc1`, the inhibition at 1 µM in data set [1] is 7.8%.
Take `CCOC(=O)c1cn(C(c2ccccc2)c2ccccc2)c2sc(NS(=O)(=O)c3ccc(OC)cc3)nc2c1=O`: the inhibition at 1 µM in data set [1] is 25%.
`O=C(O)c1cn(C(c2ccccc2)c2ccccc2)c2sc(O)nc2c1=O` showed a concentration for half-maximal inhibition (IC50) in data set [1] of 0.78 µM. This lies in the sub-micromolar range.
Turning to `COc1ccc(CNc2nc3c(=O)c(C(=O)O)cn(Cc4ccc(Cl)cc4-c4ccccc4)c3s2)cc1`, the IC50 in data set [1] worked out at 3.8 µM. This IC50 lies about 4.9-fold higher than the previous one.
The same measure, in the same setting: to `O=C(O)c1cn(Cc2ccc(Cl)cc2-c2ccccc2)c2sc(O)nc2c1=O` belongs 0.87 µM.
As to `O=C(O)c1cn(Cc2ccccc2-c2ccccc2)c2scnc2c1=O`, the inhibition at 10 µM in data set [1] amounted to 64%.
For the molecule `O=C(O)c1cn(Cc2ccccc2-c2ccccc2)c2sc(NS(=O)(=O)Cc3ccc(Cl)cc3Cl)nc2c1=O`, the IC50 in data set [1] stood at 7 µM.
Still for that read-out and setting: with `N#Cc1ccc(S(=O)(=O)Nc2nc3c(=O)c(C(=O)O)cn(Cc4ccccc4-c4ccc(Cl)cc4)c3s2)cc1` the figure was 2.5 µM; with `COc1ccc(S(=O)(=O)Nc2nc3c(=O)c(C(=O)O)cn(Cc4ccccc4-c4ccc(Cl)cc4)c3s2)cc1`, 7.2 µM; with `O=CNc1nc2c(=O)c(C(=O)O)cn(Cc3ccccc3-c3ccccc3)c2s1`, 4.7 µM.
In data set [1], `COc1ccc(CNc2nc3c(=O)c(C(=O)O)cn(Cc4ccccc4-c4cc(C)ccc4C)c3s2)cc1` gave an IC50 of 2.1 µM.
On the same count and under the same terms, with `Nc1nc2c(=O)c(C(=O)O)cn(Cc3ccccc3-c3ccccc3)c2s1` the figure was 0.94 µM; with `Cc1ccc(C)c(-c2ccccc2Cn2cc(C(=O)O)c(=O)c3nc(O)sc32)c1`, 0.25 µM; with `O=C(O)c1c[nH]c2ccnn2c1=O`, 58 µM.
Regarding `O=C(O)c1c[nH]c2ncnn2c1=O`, in data set [1], the inhibition at 5 µM was 26%.
Take `CC(C)c1cc2[nH]cc(C(=O)O)c(=O)n2n1`: in data set [1], the IC50 was 35 µM. This lies in the double-digit micromolar range.
As for `O=C(O)c1c[nH]c2cc(C3CCCC3)nn2c1=O`, the inhibition at 25 µM in data set [1] came to 41%.
On to `O=C(O)c1cn(Cc2ccccc2-c2ccccc2)c2ccnn2c1=O`, for which, in data set [1], the inhibition at 50 µM is 29%.
Turning to `O=c1cc[nH]c2nc(NS(=O)(=O)Cc3ccccc3)nn12`, 34 µM corresponded to half-maximal inhibition in data set [1] (IC50).
Same read-out and setting: with `Nc1cc2[nH]cc(C(=O)O)c(=O)n2n1` the figure was 10 µM.
`Nc1cc2n(Cc3ccccc3)cc(C(=O)O)c(=O)n2n1`: in data set [1], the inhibition at 50 µM is 35%.
For the molecule `Nc1cc2n(S(=O)(=O)c3ccccc3)cc(C(=O)O)c(=O)n2n1`, the IC50 in data set [1] stood at 71 µM.
`CS(=O)(=O)n1cc(C(=O)O)c(=O)n2nc(N)cc12`: the inhibition at 25 µM in data set [1] was determined as 31%.
With `Nc1cc2n(S(=O)(=O)Cc3ccccc3)cc(C(=O)O)c(=O)n2n1`, in data set [1], the inhibition at 25 µM amounted to 50%.
Turning to `Nc1cc2n(Cc3ccccc3-c3ccccc3)cc(C(=O)O)c(=O)n2n1`, in data set [1], the inhibition at 10 µM was found to be 38%.
Consider `CC(C)c1cc2n(CCCc3ccccc3)cc(C(=O)O)c(=O)n2n1` [drawing 215], for which the inhibition at 5 µM in data set [1] stood at 23%.
For the molecule `O=C(O)c1c[nH]c2nc(NCc3ccccc3)nn2c1=O` [drawing 216], it took 50 µM to reach half-maximal inhibition in data set [1] (IC50).
Take `O=C(O)c1cn(CCc2ccccc2)c2cc(C3CCCC3)nn2c1=O` [drawing 219]: in data set [1], the inhibition at 25 µM was found to be 42%.
Same read-out and setting: with `Nc1cc2n(C(=O)C3(c4ccccc4)CCCC3)cc(C(=O)O)c(=O)n2n1` [drawing 220] the figure was 20%; with `CC(C)c1cc2n(CCCc3ccccc3)cc(C(=O)O)c(=O)n2n1` [drawing 222], 22%.
Turning to `CCOC(=O)c1cn(CCc2ccc(O)cc2)c2cc(C3CC3)nn2c1=O` [drawing 223], in data set [1], the inhibition at 25 µM is 22%.
Same read-out and setting: with `O=C(O)c1cn(CCc2cccc(Cl)c2)c2cc(C3CC3)nn2c1=O` [drawing 224] the figure was 30%.
Turning to `O=C(O)c1cn(CCc2cccc(C(F)(F)F)c2)c2cc(C3CC3)nn2c1=O` [drawing 225], in data set [1], the inhibition at 25 µM was determined as 32%.
The molecule `O=C(O)c1cn(CCc2cccc(F)c2)c2cc(C3CC3)nn2c1=O` [drawing 226] returned a concentration for half-maximal inhibition (IC50) in data set [1] of 62 µM.
For the molecule `O=C(O)c1cn(CCc2ccc(O)cc2)c2cc(C3CC3)nn2c1=O` [drawing 227], the inhibition at 25 µM in data set [1] came to 27%.
Turning to `COc1ccc(CCn2cc(C(=O)O)c(=O)n3nc(C4CC4)cc23)cc1` [drawing 228], the midpoint of inhibition in data set [1], the IC50, lay at 69 µM.
